Among the test systems are 786-0 renal; BT-549 breast; CAKI-1 renal; CCRF-CEM leukemia; EKVX NSCLC; HOP-62 NSCLC; HS 578T breast; M14 melanoma; MALME-3M melanoma; MDA-N; MOLT-4 leukemia; OVCAR-4 ovarian; PC-3 prostate; RPMI-8226 leukemia; SF-295 CNS; SF-539 CNS; SK-MEL-2 melanoma; SK-MEL-5 melanoma; SW-620 colon; UACC-257 melanoma.
Holding throughout (test): DTP human tumour cell line panel, 48 h

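1) Cells in 96-well plates. 2) Compound, 48 h, 5 concentrations. 3) Linear interpolation between surrounding doses. 4) Unreached endpoint = highest concentration. The concentration for full growth arrest is given as TGI.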 Where only a bound is given, the exact number is not on record here.

A word on the TGI: it is the concentration at which net growth stops. Consider `C[C@@H](NC(=O)Cn1c(Cl)nc2ccccc21)c1ccccc1`, for which the concentration for total growth inhibition (TGI) in the test with 786-0 renal, with BT-549 breast, in the test on CAKI-1 renal, in the test with CCRF-CEM leukemia, with EKVX NSCLC and with HOP-62 NSCLC was over 100 µM in each case. Further, the TGI in the test with HS 578T breast, in the test with M14 melanoma, with MALME-3M melanoma, in the test with MDA-N, with MOLT-4 leukemia and with OVCAR-4 ovarian was over 100 µM throughout. Moreover, the TGI with PC-3 prostate, with RPMI-8226 leukemia, in the test with SF-295 CNS, in the test on SF-539 CNS, in the test with SK-MEL-2 melanoma and in the test on SK-MEL-5 melanoma was over 100 µM each time. The TGI with SW-620 colon and in the test with UACC-257 melanoma was over 100 µM in each case.
Consider `Cc1c(NC(=O)CSC(=S)N(C)C)c(=O)n(-c2ccccc2)n1C`, for which the TGI in the test on 786-0 renal, with BT-549 breast, with CAKI-1 renal, with CCRF-CEM leukemia, in the test on EKVX NSCLC and with HOP-62 NSCLC was over 100 µM each time. Also, the TGI in the test with HS 578T breast, in the test with M14 melanoma, in the test with MALME-3M melanoma, with MDA-N, with MOLT-4 leukemia and with OVCAR-4 ovarian was over 100 µM throughout. Also, the TGI in the test with PC-3 prostate, with RPMI-8226 leukemia, in the test with SF-295 CNS, with SF-539 CNS, in the test on SK-MEL-2 melanoma and in the test with SK-MEL-5 melanoma was over 100 µM each time. The TGI in the test on SW-620 colon and in the test with UACC-257 melanoma was over 100 µM in each case.
As to `N#Cc1c(N)nc(SCc2ccccc2)c(C#N)c1-c1ccc(O)cc1`, the concentration for total growth inhibition (TGI) stood at 30.6 µM with 786-0 renal; 24.7 µM in the test with BT-549 breast; 28.5 µM in the test with CAKI-1 renal; 38.6 µM with CCRF-CEM leukemia; 26.3 µM in the test with EKVX NSCLC; 32.6 µM in the test on HOP-62 NSCLC. Moreover, the TGI in the test on HS 578T breast is over 100 µM; in the test with M14 melanoma, 29.2 µM; in the test on MALME-3M melanoma, 30 µM; in the test with MDA-N, 27.5 µM; with MOLT-4 leukemia it was 23.1 µM; in the test with OVCAR-4 ovarian it was 30.4 µM. Moreover, the TGI was found to be 33.6 µM with PC-3 prostate; 29.8 µM in the test on RPMI-8226 leukemia; 32.3 µM in the test with SF-295 CNS; 57.5 µM in the test with SF-539 CNS; 35.5 µM with SK-MEL-2 melanoma; 27.1 µM in the test on SK-MEL-5 melanoma. Also, the TGI was 41.6 µM in the test with SW-620 colon and over 52.4 µM in the test with UACC-257 melanoma.
Take `COC(=O)[C@@H](NC(=O)[C@H](N)Cc1ccc(N(CCCl)CCCl)cc1)C(C)C`: the TGI in the test with 786-0 renal is 49.7 µM; in the test with BT-549 breast, 65.3 µM; in the test with CAKI-1 renal, 7.53 µM; in the test on CCRF-CEM leukemia, over 29.6 µM; in the test on EKVX NSCLC it was over 90.8 µM; with HOP-62 NSCLC it was over 100 µM. The total growth inhibition concentration (TGI) is 77.7 µM with HS 578T breast; 49.5 µM in the test with M14 melanoma; 6.19 µM in the test on MALME-3M melanoma; over 68 µM with MDA-N; 0.234 µM in the test with MOLT-4 leukemia; 36.7 µM in the test on OVCAR-4 ovarian. Also, the total growth inhibition concentration (TGI) in the test on PC-3 prostate is over 100 µM; in the test with RPMI-8226 leukemia it was 34 µM; in the test on SF-295 CNS, over 100 µM; with SF-539 CNS it was 67.6 µM; with SK-MEL-2 melanoma, over 100 µM; in the test with SK-MEL-5 melanoma, 10.8 µM. The TGI in the test with SW-620 colon was over 77.3 µM; in the test with UACC-257 melanoma, 25 µM.
For the compound `CCO[C@@]12CCC3CC4CC[C@@](OCC)(O1)C4C32` (stereo not given in full), the TGI in the test with 786-0 renal, in the test on BT-549 breast, in the test with CAKI-1 renal, in the test on CCRF-CEM leukemia, in the test on EKVX NSCLC and with HOP-62 NSCLC was over 100 µM in each case. Besides, the TGI in the test with HS 578T breast, in the test on M14 melanoma, in the test with MALME-3M melanoma, in the test with MDA-N, in the test on MOLT-4 leukemia and with OVCAR-4 ovarian was over 100 µM each time. The TGI with PC-3 prostate, in the test with RPMI-8226 leukemia, with SF-295 CNS, in the test with SF-539 CNS, in the test with SK-MEL-2 melanoma and in the test on SK-MEL-5 melanoma was over 100 µM in each case. Further, the TGI with SW-620 colon and in the test with UACC-257 melanoma was over 100 µM each time.
Consider `COc1ccc(-c2c(-c3ccccc3)c(C)nc3[nH]c(=S)[nH]c(=S)c23)cc1OC`, for which the TGI in the test on 786-0 renal is over 100 µM; in the test with BT-549 breast, over 100 µM; with CAKI-1 renal it was over 100 µM; in the test with CCRF-CEM leukemia, 72.5 µM; with EKVX NSCLC, over 100 µM; with HOP-62 NSCLC it was 89.6 µM. The TGI is over 100 µM in the test on HS 578T breast; over 100 µM in the test with M14 melanoma; 90.1 µM in the test on MALME-3M melanoma; over 100 µM in the test with MDA-N; 63.6 µM with MOLT-4 leukemia; over 100 µM with OVCAR-4 ovarian. The TGI with PC-3 prostate is over 100 µM; in the test on RPMI-8226 leukemia it was over 100 µM; in the test on SF-295 CNS it was over 100 µM; in the test on SF-539 CNS, 50.8 µM; in the test on SK-MEL-2 melanoma, 48.1 µM; with SK-MEL-5 melanoma, over 100 µM. The concentration for total growth inhibition (TGI) with SW-620 colon and in the test with UACC-257 melanoma was over 100 µM throughout.
Regarding `CN1C(=O)[C@H](c2c[nH]c3ccccc23)[C@H](c2c[nH]c3ccccc23)C1=O`, the TGI in the test on 786-0 renal was over 91.4 µM; in the test on BT-549 breast, 55.7 µM; in the test on CAKI-1 renal, over 38.8 µM; in the test with CCRF-CEM leukemia, 87 µM; with EKVX NSCLC, over 100 µM; in the test on HOP-62 NSCLC, over 64.1 µM. The total growth inhibition concentration (TGI) is over 86.3 µM in the test with HS 578T breast; over 100 µM with M14 melanoma; over 100 µM in the test on MALME-3M melanoma; over 100 µM in the test with MDA-N; over 77 µM with MOLT-4 leukemia; 50.6 µM in the test on OVCAR-4 ovarian. The TGI was over 80.4 µM with PC-3 prostate; over 66.9 µM in the test on RPMI-8226 leukemia; over 73.7 µM in the test on SF-295 CNS; over 54.3 µM with SF-539 CNS; over 55.2 µM in the test on SK-MEL-2 melanoma; over 52.5 µM with SK-MEL-5 melanoma. The TGI in the test with SW-620 colon was over 100 µM; in the test on UACC-257 melanoma, over 63.8 µM.
On to `CCOC(=O)CC(=O)Nc1cccc2sc3ncccc3c(=O)c12`, for which the TGI with 786-0 renal, in the test with BT-549 breast, with CAKI-1 renal, with CCRF-CEM leukemia, in the test on EKVX NSCLC and in the test on HOP-62 NSCLC was over 100 µM each time. Further, the TGI in the test on HS 578T breast, in the test with M14 melanoma, with MALME-3M melanoma, with MDA-N, in the test with MOLT-4 leukemia and in the test with OVCAR-4 ovarian was over 100 µM each time. The concentration for total growth inhibition (TGI) in the test on PC-3 prostate is over 100 µM; with RPMI-8226 leukemia, over 100 µM; with SF-295 CNS it was over 100 µM; with SF-539 CNS it was over 100 µM; in the test on SK-MEL-2 melanoma, over 100 µM; in the test with SK-MEL-5 melanoma, 40.5 µM. Moreover, the TGI in the test with SW-620 colon and with UACC-257 melanoma was over 100 µM throughout.
On to `COc1ccc2c(C)cc(N/N=C/c3ccc(C)s3)nc2c1`, for which the TGI was 31.6 µM in the test on 786-0 renal; 62.8 µM in the test on BT-549 breast; 34.4 µM with CAKI-1 renal; over 93.7 µM in the test on CCRF-CEM leukemia; 32.2 µM in the test on EKVX NSCLC; 56.9 µM with HOP-62 NSCLC. In addition, the TGI is over 90.9 µM in the test on HS 578T breast; 23.2 µM in the test with M14 melanoma; over 69.6 µM in the test with MALME-3M melanoma; over 62.7 µM in the test on MDA-N; 36.9 µM with MOLT-4 leukemia; over 63.9 µM in the test on OVCAR-4 ovarian. The TGI was 37.1 µM in the test on PC-3 prostate; over 35.7 µM in the test on RPMI-8226 leukemia; 26.8 µM in the test with SF-295 CNS; 36.5 µM in the test on SF-539 CNS; 37.9 µM in the test on SK-MEL-2 melanoma; 16 µM in the test on SK-MEL-5 melanoma. Further, the concentration for total growth inhibition (TGI) with SW-620 colon is over 48.4 µM; in the test on UACC-257 melanoma, over 52.9 µM.
As to `Clc1cc(OCc2nn3c(Cc4ccccc4)nnc3s2)c(Cl)cc1OCc1nn2c(Cc3ccccc3)nnc2s1`, the TGI in the test with 786-0 renal was over 100 µM; in the test on BT-549 breast, 95.9 µM; with CAKI-1 renal it was over 100 µM; in the test on CCRF-CEM leukemia, over 100 µM; in the test on EKVX NSCLC it was over 100 µM; with HOP-62 NSCLC, over 100 µM. The TGI with HS 578T breast was over 100 µM; in the test with M14 melanoma it was over 100 µM; with MALME-3M melanoma, over 100 µM; in the test on MDA-N, over 100 µM; with MOLT-4 leukemia, 19.8 µM; in the test with OVCAR-4 ovarian, over 100 µM. The TGI was over 100 µM in the test with PC-3 prostate; 30.1 µM in the test on RPMI-8226 leukemia; over 100 µM in the test with SF-295 CNS; over 100 µM with SF-539 CNS; over 100 µM in the test with SK-MEL-2 melanoma; over 100 µM in the test with SK-MEL-5 melanoma. Further, the TGI in the test with SW-620 colon and with UACC-257 melanoma was over 100 µM each time.
Regarding `Nc1nc(Cl)c(N)c(NCC2(CO)CCC(CCc3ccccc3)C2)n1` (stereo not given), the TGI in the test with 786-0 renal is 61.2 µM; with BT-549 breast it was 32.6 µM; with CAKI-1 renal, 47.2 µM; with CCRF-CEM leukemia it was 48.8 µM; in the test with EKVX NSCLC it was over 69.9 µM; in the test with HOP-62 NSCLC, 36.7 µM. Moreover, the TGI with HS 578T breast was over 63.8 µM; in the test with M14 melanoma, 27.4 µM; in the test on MALME-3M melanoma, 30.3 µM; in the test with MDA-N it was 33.7 µM; in the test with MOLT-4 leukemia it was 28 µM; with OVCAR-4 ovarian, 77.5 µM. The TGI with PC-3 prostate was 49.7 µM; with RPMI-8226 leukemia it was 47.7 µM; in the test with SF-295 CNS, 29.8 µM; with SF-539 CNS, 33.7 µM; with SK-MEL-2 melanoma it was 31.7 µM; in the test with SK-MEL-5 melanoma, 15.1 µM. In addition, the TGI is 27.2 µM with SW-620 colon and 18.8 µM in the test with UACC-257 melanoma.
